Test results taken from patent publication US12643879B2, “Functionalized heterocyclic compounds as modulators of stimulator of interferon genes (STING)” (RYVU THERAPEUTICS S.A., priority 2019, dated 2026).
Structures can show the parent of a compound that is named as a salt. Where two headings read alike, the source gives them in different places.

Tests used:
[1] = system: interferon regulatory factor (IRF) pathway in THP-1 dual cells; experiment: THP-1 Dual reporter assay, IRF pathway (luciferase); assay type: cell-based; details: 18 h stimulation, luminescence, read-out: THP1 Dual EC50 (μM) IRF
Protocol: (§1) Compounds of the present invention were tested for their activity using THP-1 dual cells (Invivogen, cat no. thpd-nfis) allowing for simultaneous study of NF-κB pathway and the interferon regulatory factor (IRF) pathway. THP-1 dual cells contain luciferase reporter gene under the control of an ISG54 (interferon-stimulated gene) minimal promoter in conjunction with five interferon-stimulated response elements and a secreted embryonic alkaline phosphatase reporter gene under the control an IFN (interferon)-β minimal promoter fused to five copies of the NF-κB consensus transcriptional response element with three copies of the c-Rel binding site. Following 18 h of stimulation with STING agonist, medium was collected and transferred onto fresh cell culture plate. To verify activity of the IRF pathway, luminescence activity was measured with standard laboratory plate reader immediately after addition 10 μl of the medium to 40 or 50 μl of luminescence reagent (Invivogen, cat. No. rep-qlc2). To verify activity of NF-κB pathway, 10 or 20 μl of the medium was mixed with 80 μl of a detection medium (Invivogen, cat. No. rep-qb2) and incubated for 1 or 2 hours at 37° C. in a humidified atmosphere containing 5% CO2. Next, absorbance at 630 or 655 nm was recorded using standard laboratory plate reader.

[2] = system: NF-κB pathway in THP-1 dual cells; experiment: THP-1 Dual reporter assay, NF-κB pathway (SEAP); assay type: cell-based; details: Homo sapiens, THP1-Dual; 18 h stimulation, absorbance at 630 or 655 nm; read-out: THP1 Dual EC50 (μM) NFkB
Protocol: as §1

Row | SMILES | EC50 ([1]; Homo sapiens, THP1-Dual) [µM] | EC50 [2] [µM] | EC50 [1] [µM]
1 | Cc1ccc(N2CCC[C@H](N(Cc3ccnc(C)c3)Cc3cn(CCO)c4ccccc4c3=O)C2)cn1 [Example 41, 1-(2-hydroxyethyl)-3-({[(3S)-1-(6-methylpyridin-3-yl)piperidin-3-yl][(2-methylpyridin-4-yl)methyl]amino}methyl)-1,4-dihydroquinolin-4-one] | 1 to 10 | 1 to 10 | 
2 | Cc1cc(CN(Cc2cn(C(C)C)c3cc(N4CC[C@@H](O)C4)ccc3c2=O)[C@H]2CCCN(c3cn[nH]c3)C2)ccn1 [Example 69, 7-[(3R)-3-hydroxypyrrolidin-1-yl]-3-({[(2-methylpyridin-4-yl)methyl][(3S)-1-(1H-pyrazol-4-yl)piperidin-3-yl]amino}methyl)-1-(propan-2-yl)-1,4-dihydroquinolin-4-one] | 1 to 10 | 1 to 10 | 
3 | C#CCOCCOCCOCCOCCOCCC(=O)Nc1ccc(COC(=O)N(C)[C@@H]2CCN(c3cc4c(cc3F)c(=O)c(CN(Cc3ccnc(C)c3)[C@H]3CCCN(c5ccc(C)nc5)C3)cn4C3CC3)C2)cc1 [Example 55A] | < 1 | < 1 | 
4 | Cc1ccc(N2CCC[C@H](N(Cc3ccnc(C)c3)Cc3cn(C4CC4)c4cc(N5CCN(CCO)CC5)c(F)cc4c3=O)C2)cn1 [Example 70, 1-cyclopropyl-6-fluoro-7-[4-(2-hydroxyethyl)piperazin-1-yl]-3-({[(3S)-1-(6-methylpyridin-3-yl)piperidin-3-yl][(2-methylpyridin-4-yl)methyl]amino}methyl)-1,4-dihydroquinolin-4-one] | < 1 | < 1 | 
5 | Cc1ccc(N2CCC[C@H](N(Cc3ccnc(C)c3)Cc3cn(C4CC4)c4cc(N5CCO[C@H](CO)C5)c(F)cc4c3=O)C2)cn1 (single isomer, unassigned) [Example 73] | < 1 | < 1 | 
6 | Cc1ccc(N2CCC[C@H](N(Cc3ccnc(C)c3)Cc3cn(CC(N)=O)c4ccccc4c3=O)C2)cn1 [Example 77, 2-[3-({[(3S)-1-(6-methylpyridin-3-yl)piperidin-3-yl][(2-methylpyridin-4-yl)methyl]amino}methyl)-4-oxo-1,4-dihydroquinolin-1-yl]acetamide] | 1 to 10 | 1 to 10 | 
7 | Cc1ccc(N2CCC[C@H](N(Cc3ccnc(C)c3)Cc3cn(C4CC4)c4cc(N5CCOC(CO)C5)c(F)cc4c3=O)C2)cn1 (stereo partly drawn) [Example 71, 1-cyclopropyl-6-fluoro-7-[2-(hydroxymethyl)morpholin-4-yl]-3-({[(3S)-1-(6-methylpyridin-3-yl)piperidin-3-yl][(2-methylpyridin-4-yl)methyl]amino}methyl)-1,4-dihydroquinolin-4-one] | < 1 | < 1 | 
8 | Cc1ccc(N2CCC[C@H](N(Cc3ccnc(C)c3)Cc3cn(C4CC4)c4cc(N5CC[C@H](N)C(F)(F)C5)c(F)cc4c3=O)C2)cn1.Cl (single isomer, unassigned) [Example 57, 7-[(4S)-4-amino-3,3-difluoropiperidin-1-yl]-1-cyclopropyl-6-fluoro-3-({[(3S)-1-(6-methylpyridin-3-yl)piperidin-3-yl][(2-methylpyridin-4-yl)methyl]amino}methyl)-1,4-dihydroquinolin-4-one] | < 1 | < 1 | 
9 | C#CCOCCOCCOCCOCCOCCC(=O)O[C@H]1CCCN(c2cc3c(cc2F)c(=O)c(CN(Cc2ccnc(C)c2)[C@H]2CCCN(c4ccc(C)nc4)C2)cn3C2CC2)C1 [Example 31A, (3S)-1-[1-cyclopropyl-6-fluoro-3-({[(3S)-1-(6-methylpyridin-3-yl)piperidin-3-yl][(2-methylpyridin-4-yl)methyl]amino}methyl)-4-oxo-1,4-dihydroquinolin-7-yl]piperidin-3-yl 4,7,10,13,16-pentaoxanonadec-18-ynoate] | < 1 | < 1 | 
10 | Cc1ccc(N2CCC[C@H](N(Cc3ccnc(C)c3)Cc3cn(C4CC4)c4cc(N5CC[C@@H](N(C)C(=O)CCOCCOCCOCCNC(=O)OC(C)(C)C)C5)c(F)cc4c3=O)C2)cn1 [Example 55C, tert-Butyl N-(2-{2-[2-(2-{[(3R)-1-[1-cyclopropyl-6-fluoro-3-({[(3S)-1-(6-methylpyridin-3-yl)piperidin-3-yl][(2-methylpyridin-4-yl)methyl]amino}methyl)-4-oxo-1,4-dihydroquinolin-7-yl]pyrrolidin-3-yl](methyl)carbamoyl}ethoxy)ethoxy]ethoxy}ethyl)carbamate] | < 1 | < 1 | 
11 | Cc1ccc(N2CCC[C@H](N(Cc3ccnc(C)c3)Cc3cn(C(C)C)c4cc(N5CC[C@@H](O)C5)ccc4c3=O)C2)cn1 [Example 52, 7-[(3R)-3-hydroxypyrrolidin-1-yl]-3-({[(3S)-1-(6-methylpyridin-3-yl)piperidin-3-yl][(2-methylpyridin-4-yl)methyl]amino}methyl)-1-(propan-2-yl)-1,4-dihydroquinolin-4-one] | < 1 | < 1 | 
12 | Cc1ccc(N2CCC[C@H](N(Cc3ccnc(C)c3)Cc3cn(C4CC4)c4cc(OCCN(C)C(=O)CCOCCOCCOCCOCCOCCOCCOCCC(=O)O)c(F)cc4c3=O)C2)cn1 [Example 11E, 1-[(2-{[1-cyclopropyl-6-fluoro-3-({[(3S)-1-(6-methylpyridin-3-yl)piperidin-3-yl][(2-methylpyridin-4-yl)methyl]amino}methyl)-4-oxo-1,4-dihydroquinolin-7-yl]oxy}ethyl)(methyl)carbamoyl]-3,6,9,12,15,18,21-heptaoxatetracosan-24-oic acid] | 1 to 10 | 1 to 10 | 

Second part, the compound after the results:

Row | EC50 ([1]; Homo sapiens, THP1-Dual) [µM] | EC50 [2] [µM] | EC50 [1] [µM] | SMILES
13 | < 1 | < 1 |  | Cc1cnc(N2CCC[C@H](N(Cc3ccnc(C)c3)Cc3cn(C4CC4)c4cc(N5CCC[C@H](O)C5)c(F)cc4c3=O)C2)cn1 [Example 81, 1-cyclopropyl-6-fluoro-7-[(3S)-3-hydroxypiperidin-1-yl]-3-({[(3S)-1-(5-methylpyrazin-2-yl)piperidin-3-yl][(2-methylpyridin-4-yl)methyl]amino}methyl)-1,4-dihydroquinolin-4-one]
14 | < 1 | < 1 |  | COc1cc(CN(Cc2cn(C3CC3)c3cc(F)c(F)cc3c2=O)[C@H]2CCCN(c3ccc(NC(C)=O)nc3)C2)ccn1 [Example 99, N-{5-[(3S)-3-{[(1-cyclopropyl-6,7-difluoro-4-oxo-1,4-dihydroquinolin-3-yl)methyl][(2-methoxypyridin-4-yl)methyl]amino}piperidin-1-yl]pyridin-2-yl}acetamide]
15 | < 1 | < 1 |  | Cc1cc(CN(Cc2cn(C3CC3)c3cc(OCCO)c(F)cc3c2=O)[C@H]2CCCN(c3cncc(C(F)(F)F)c3)C2)ccn1 [Example 93, 1-cyclopropyl-6-fluoro-7-(2-hydroxyethoxy)-3-({[(2-methylpyridin-4-yl)methyl][(3S)-1-[5-(trifluoromethyl)pyridin-3-yl]piperidin-3-yl]amino}methyl)-1,4-dihydroquinolin-4-one hydrochloride]
16 | 1 to 10 | 1 to 10 |  | Cc1cc(CN(Cc2cn(C3CC3)c3cc(Cl)c(F)cc3c2=O)[C@H]2CCCN(c3ccc(C(=O)O)nc3)C2)ccn1 [Example 102]
17 | < 1 | < 1 |  | Cc1cc(CN(Cc2cn(C3CC3)c3cc(OCCO)c(F)cc3c2=O)[C@H]2C[C@H](F)CN(c3cnccn3)C2)ccn1 [Example 95, 1-cyclopropyl-6-fluoro-3-({[(3S,5S)-5-fluoro-1-(pyrazin-2-yl)piperidin-3-yl][(2-methylpyridin-4-yl)methyl]amino}methyl)-7-(2-hydroxyethoxy)-1,4-dihydroquinolin-4-one hydrochloride]
18 | < 1 | < 1 |  | Cc1cc(CN(Cc2cn(C3CC3)c3cc(OCCO)c(F)cc3c2=O)[C@H]2CCCN(c3ccc(N(C)C)nc3)C2)ccn1 [Example 92, 1-cyclopropyl-3-({[(3S)-1-[6-(dimethylamino)pyridin-3-yl]piperidin-3-yl][(2-methylpyridin-4-yl)methyl]amino}methyl)-6-fluoro-7-(2-hydroxyethoxy)-1,4-dihydroquinolin-4-one hydrochloride]
19 | 1 to 10 | > 10 |  | Cc1cc(CN(Cc2cn(C3CC3)c3cc(OCCO)c(F)cc3c2=O)[C@H]2CCCN(c3cccnn3)C2)ccn1 [Example 96, 1-cyclopropyl-6-fluoro-7-(2-hydroxyethoxy)-3-({[(2-methylpyridin-4-yl)methyl][(3S)-1-(pyridazin-3-yl)piperidin-3-yl]amino}methyl)-1,4-dihydroquinolin-4-one]
20 |  |  | < 1 | Cc1cc(CN(Cc2cn(C3CC3)c3cc(N4CCC(CO)C4)c(F)cc3c2=O)[C@H]2CCCN(c3cccnc3)C2)ccn1 (stereo in doubt) [Example 88, 1-cyclopropyl-6-fluoro-7-[(3R)-3-(hydroxymethyl)pyrrolidin-1-yl]-3-({[(2-methylpyridin-4-yl)methyl][(3S)-1-(pyridin-3-yl)piperidin-3-yl]amino}methyl)-1,4-dihydroquinolin-4-one hydrochloride]
